Patent US20090048295A1, “SUBSTITUTED 5,6,7,8-TETRAHYDROQUINOLINE DERIVATIVES, COMPOSITIONS, AND METHODS OF USE THEREOF” (priority 2007, published 2009)
“And” between values parts separate entries of the source, which are not always exact repeats. Equal entries are not always repeated.

B1: C5a: anaphylatoxin C5a, 74-amino acid N-terminal fragment of complement factor C5; recombinant human C5a (Sigma), radioligand [125I]-C5a (protein, UniProt P01031 678-751, looked up)
C5a anaphylatoxin: TLQKKIEEIAAKYKHSVVKKCCYDGACVNNDETCEQRAARISLGPRCIKAFTECCVVASQLRANISHKDMQLGR
modifications: C5a anaphylatoxin also 125I-labelled radioligand

Key:
C5a receptor [1] = molecular target: T1, C5a receptor (Homo sapiens, UniProt P21730); experiment: Calcium Mobilization Assay (C5a-induced Ca2+ mobilization, FLIPR, differentiated U937 cells); assay type: cell-based; parameters: endogenous in cells; host or cells: U937 cells differentiated with dibutyryl cAMP; details: […] recombinant human C5a, 20 min pre-incubation, multiple values = duplicate experiments, read-out: C5a Induced Ca Mobil. Average IC50
T1 sequence (P21730 1-350): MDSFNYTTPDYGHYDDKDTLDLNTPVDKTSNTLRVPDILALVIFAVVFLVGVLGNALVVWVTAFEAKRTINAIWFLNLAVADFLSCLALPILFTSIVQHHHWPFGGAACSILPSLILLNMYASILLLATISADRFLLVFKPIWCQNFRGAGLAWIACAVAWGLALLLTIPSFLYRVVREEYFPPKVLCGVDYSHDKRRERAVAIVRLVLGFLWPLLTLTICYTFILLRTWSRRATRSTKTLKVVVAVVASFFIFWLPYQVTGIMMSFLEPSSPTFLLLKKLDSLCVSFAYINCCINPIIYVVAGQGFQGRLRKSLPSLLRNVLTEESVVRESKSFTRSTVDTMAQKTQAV
Experimental: U937 cells (human monocytic cell line) were cultured in RPMI-1640 medium supplemented with 10% fetal bovine serum, 10 mM HEPES, 0.11 g/L pyruvate, 0.29 g/L L-glutamine, 100 IU/mL penicillin G and […] streptomycin. Dibutyryl cAMP (1 mM) was added to induce differentiation 2 or 3 days prior to loading the cells with 4.4 μM Fluo-3AM (Molecular Probes) for 30 min at 37° C. in RPMI medium containing 20 mM HEPES, 0.1% bovine serum albumin (BSA) and 5 mM probenecid. After washing, cells were dissolved at 2×10^6 cells/ml in HBSS buffer (Invitrogen 14190-094) supplemented with 10 mM HEPES, 2.5 mM probenecid and 0.1% BSA (pH=7.4), and sedimented by 1 min centrifugation (1500 rpm) in black 96-well plates (Costar) (200,000 cells/well). A 100× concentration range of test compounds was prepared in DMSO and further diluted in HBSS buffer. U937 cells were pre-incubated with compound for 20 minutes at room temperature (1% DMSO), before recombinant human C5a (Sigma) was added to the cells (1.5 nM). Changes in intracellular free Ca^2+ concentration were measured using the Fluorescent Imaging Plate Reader (FLIPR, Molecular Devices). Fluorescence was recorded every second from 10 seconds before the addition of C5a until 2 min after the addition. The maximal fluorescence obtained during this time frame was used for further calculations.

C5a receptor [2] = molecular target: T1, C5a receptor; experiment: [125I]-C5a Radioligand Binding Assay (competition binding, differentiated U937 cells); details: for inhibition at 1 µM: read-out: [125I]-C5a Binding % Inhibition 1 μM, test compound 1 μM; for inhibition at 1 µM / inhibition at 10 µM / [125I]-C5a Binding % Inhibition 1 μM / [125I]-C5a Binding % Inhibition 10 μM: [125I]-C5a 0.05 nM, U937 cells, multiple values = duplicate experiments; for inhibition at 10 µM: read-out: [125I]-C5a Binding % Inhibition 10 μM, test compound 10 μM; for [125I]-C5a Binding % Inhibition 1 μM: test compound 1 μM; for [125I]-C5a Binding % Inhibition 10 μM: test compound 10 μM;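 for all read-outs here: cells preincubated with compound 30 min at room temperature, then 60 min at 4 °C with radioligand, bound counts read by scintillation, nonspecific binding defined with 100 nM C5a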

Row | Molecule | IC50 (C5a receptor [1]) | inhibition at 1 µM (C5a receptor [2]) | inhibition at 10 µM (C5a receptor [2]) | further results
1 | CCc1cccc(CC)c1-c1cc(OC)c2c(n1)CCCC2N(C)c1cccc2ccccc12 (stereo not shown) [Compound 104] | > 10 µM | 56% | 64% | –
2 | CCc1cccc(CC)c1-c1cc(OC)c2c(n1)CCCC2Nc1cc(Cl)ccc1CO (stereo not shown) [Compound 3] | 0.026 µM | – | – | –
3 | CCc1cccc(CC)c1-c1cc(OC)c2c(n1)CCCC2NCc1ccccc1N (stereo not shown) [Compound 145] | > 10 µM | – | – | –
4 | CCc1cccc(CC)c1-c1cc(OC)c2c(n1)CCCC2Nc1cc(OC)ccc1OC (stereo not shown) [Compound 34] | 0.417 µM | 83% | 89% | –
5 | CCc1cccc(CC)c1-c1cc(OC)c2c(n1)CCCC2N(C)c1cccc2c1CCC2 (stereo not shown) [Compound 72] | 3.79 µM | 86% | 85% | –
6 | CCc1cccc(CC)c1-c1cc(OC)c2c(n1)CCCC2N1CCc2cc(C(=O)OC)ccc2C1 (stereo not shown) [Compound 98] | > 10 µM | 43% | 70% | –
7 | CCc1cccc(CC)c1-c1cc(OC)c2c(n1)CCCC2N(C)c1cccc2cc(OC)ccc12 (stereo not shown) [Compound 22] | 0.176 µM | – | – | [125I]-C5a Binding % Inhibition 1 μM (C5a receptor [2]): 87%; [125I]-C5a Binding % Inhibition 10 μM (C5a receptor [2]): 86%
8 | CCc1cccc(CC)c1-c1cc(OC)c2c(n1)CCCC2N(C)Cc1cccnc1 (stereo not shown) [Compound 125] | > 10 µM | -11% | 45% | –
9 | CCc1cccc(CC)c1-c1cc(OCCN(C)C)c2c(n1)CCCC2Nc1cc(OC)ccc1C (stereo not shown) [Compound 62] | 2.32 µM | – | – | –
10 | COc1cc(-c2c(C)cccc2C)nc2c1C(N(CC#N)c1cccc3ccccc13)CCC2 (stereo not shown) [Compound 49] | 1.38 µM | 59% | 80% | –
11 | CCc1cccc(CC)c1-c1cc(OC)c2c(n1)CCCC2N(C)c1cccc2c(OC)cccc12 (stereo not shown) [Compound 118] | – | 71% | 77% | –
12 | CCc1cccc(CC)c1-c1cc(OC)c2c(n1)CCCC2Oc1ccccc1CCO (stereo not shown) [Compound 64] | 2.39 µM | – | – | –
13 | CCc1cccc(CC)c1-c1cc(OC)c2c(n1)CCCC2Nc1cnccc1CO (stereo not shown) [Compound 71] | 3.47 µM | – | – | –
14 | CCc1cccc(CC)c1-c1cc(OC)c2c(n1)CCCC2Nc1cccc(CO)c1 (stereo not shown) [Compound 142] | > 10 µM | – | – | –
15 | COc1cc(-c2c(C)cccc2C)nc2c1C(N(C)c1c(C)cccc1C)CCC2 (stereo not shown) [Compound 114] | – | 63% | 73% | –
16 | CCc1cccc(CC)c1-c1cc(OC)c2c(n1)CCCC2Nc1ccc(CO)cc1C (stereo not shown) [Compound 141] | > 10 µM | – | – | –
17 | CCc1cccc(CC)c1-c1cc(OC2CCCC2)c2c(n1)CCCC2Nc1cc(OC)ccc1C (stereo not shown) [Compound 17] | 0.134 µM | – | – | –
18 | CCc1cccc(CC)c1-c1cc(OC)c2c(n1)CCCC2Nc1ccccc1C(=O)O (stereo not shown) [Compound 33] | 0.414 µM | – | – | –
19 | CCc1cccc(CC)c1-c1cc(OC(C)C)c2c(n1)CCCC2Nc1cc(OC)ccc1C (stereo not shown) [Compound 18] | 0.137 µM | – | – | –
20 | CCc1cccc(CC)c1-c1cc(OC)c2c(n1)CCCC2N(C)c1cc(-c2ccccc2)ccc1C (stereo not shown) [Compound 122] | – | 81% | 84% | –
21 | CCN(c1cccc2ccccc12)C1CCCc2nc(-c3ccsc3)cc(OC)c21 (stereo not shown) [Compound 134] | – | -8% | 40% | –
22 | CCc1cccc(CC)c1-c1cc(OC)c2c(n1)CCCC2N1CCc2ccc(C(F)(F)F)cc2C1 (stereo not shown) [Compound 101] | – | 75% | 79% | –
23 | CCc1cccc(CC)c1-c1cc(OC)c2c(n1)CCCC2Nc1ccccc1C (stereo not shown) [Compound 46] | – | 81% | 87% | –
24 | CCc1cccc(CC)c1-c1cc(O)c2c(n1)CCCC2Nc1cc(O)ccc1C (stereo not shown) [Compound 146] | > 10 µM | – | – | –

Row | Molecule | IC50 (C5a receptor [1]) | inhibition at 1 µM (C5a receptor [2]) | inhibition at 10 µM (C5a receptor [2]) | further results
25 | CCc1cccc(CC)c1-c1cc(CC)c2c(n1)CCCC2N(CC)c1cccc2ccccc12 (stereo not shown) [Compound 23] | 0.191 µM | – | – | –
26 | CCOC(=O)c1ccccc1OC1CCCc2nc(-c3c(CC)cccc3CC)cc(OC)c21 (stereo not shown) [Compound 150] | > 10 µM | – | – | –
27 | CCN(c1cccc2ccccc12)C1CCCc2nc(-c3c(C)noc3C)cc(OC)c21 (stereo not shown) [Compound 151] | > 10 µM | – | – | –
28 | CCc1cccc(CC)c1-c1cc(OC)c2c(n1)CCC[C@H]2N(CC)c1cccc2ccccc12 [Compound 4] | – | 94% | 95% | [125I]-C5a Binding % Inhibition 1 μM (C5a receptor [2]): 99%; [125I]-C5a Binding % Inhibition 10 μM (C5a receptor [2]): 101%
29 | CCc1cccc(CC)c1-c1cc(OC)c2c(n1)CCCC2Nc1cccc2ccccc12 (stereo not shown) [Compound 132] | – | – | – | [125I]-C5a Binding % Inhibition 1 μM (C5a receptor [2]): 12%; [125I]-C5a Binding % Inhibition 10 μM (C5a receptor [2]): 34%
30 | CCc1cccc(CC)c1-c1cc(OC)c2c(n1)CCCC2Oc1cc(OC)ccc1C=O (stereo not shown) [Compound 143] | > 10 µM | – | – | –
31 | CCc1cccc(CC)c1-c1cc(OC)c2c(n1)CCCC2Oc1ccccc1CO (stereo not shown) [Compound 139] | > 10 µM | – | – | –
32 | CCN(c1cccc2ccccc12)C1CCCc2nc(-c3ccccc3-c3ccccc3)cc(OC)c21 (stereo not shown) [Compound 107] | – | 76% | 84% | –
33 | CCc1cccc(CC)c1-c1cc(OC)c2c(n1)CCCC2N1CCc2cc(OC)c(OC)cc2C1 (stereo not shown) [Compound 127] | – | -9% | 42% | –
34 | CCc1cccc(CC)c1-c1cc(OC)c2c(n1)CCCC2Nc1cccc2ccccc12 (stereo not shown) [Compound 103] | – | – | – | [125I]-C5a Binding % Inhibition 1 μM (C5a receptor [2]): 48%; [125I]-C5a Binding % Inhibition 10 μM (C5a receptor [2]): 61%
35 | CCCC1(Nc2cc(OC)ccc2C)CCCc2nc(-c3c(CC)cccc3CC)cc(OC)c21 (racemic) [Compound 70, (±)-[2-(2,6-Diethyl-phenyl)-4-methoxy-5-propyl-5,6,7,8-tetrahydro-quinolin-5-yl]-(5-methoxy-2-methyl-phenyl)-amine] | 3.47 µM | – | – | –
36 | CCc1cccc(CC)c1-c1cc(OC(C)C)c2c(n1)CCCC2Nc1ccccc1CCO (stereo not shown) [Compound 1] | 0.0073 µM | – | – | –
37 | CCN(c1cccc2ccccc12)C1CCCc2nc(-c3cccnc3)cc(OC)c21 (stereo not shown) [Compound 136] | – | 2% | 35% | –
38 | CCc1cccc(CC)c1-c1cc(OC)c2c(n1)CCCC2N1CCc2ccc(OC)cc2C1 (stereo not shown) [Compound 100] | – | 70% | 82% | –
39 | CCc1cccc(CC)c1-c1cc(OC)c2c(n1)CCCC2(C)Nc1cc(OC)ccc1C (stereo not shown) [Compound 140] | > 10 µM | – | – | –
40 | CCN(c1cccc2ccccc12)C1CCCc2nc(-c3c(Cl)cccc3OC)cc(OC)c21 (stereo not shown) [Compound 13] | 0.109 µM | – | – | –
41 | CCc1cccc(CC)c1-c1cc(CC)c2c(n1)CCCC2Nc1cc(OC)ccc1C (racemic) [Compound 25, (±)-[2-(2,6-Diethyl-phenyl)-4-ethyl-5,6,7,8-tetrahydro-quinolin-5-yl]-(5-methoxy-2-methyl-phenyl)-amine] | 0.244 µM | – | – | –
42 | CCc1cccc(CC)c1-c1cc(OC)c2c(n1)CCCC2Nc1ccc(F)cc1CO (stereo not shown) [Compound 7] | 0.053 µM | – | – | –
43 | CCc1cccc(CC)c1-c1cc(OC)c2c(n1)CCCC2N(CC)c1cccc2ccccc12 (racemic) [Compound 12, (±)-[2-(2,6-Diethyl-phenyl)-4-methoxy-5,6,7,8-tetrahydro-quinolin-5-yl]-ethyl-naphthlen-1-yl-amine] | – | 94% | 97% | [125I]-C5a Binding % Inhibition 1 μM (C5a receptor [2]): 88% and 98% and 101% and 100% and 81%; [125I]-C5a Binding % Inhibition 10 μM (C5a receptor [2]): 92% and 102, 102, % and 90%
44 | CCc1cccc(CC)c1-c1cc(OC2CCCC2)c2c(n1)CCCC2N(CC)c1cccc2ccccc12 (stereo not shown) [Compound 6] | 0.037 µM | – | – | –
45 | CCc1cccc(CC)c1-c1cc(OC)c2c(n1)CCCC2Nc1ccccc1CN (stereo not shown) [Compound 75] | 4.96 µM | – | – | –
46 | CCc1cccc(CC)c1-c1cc(OC)c2c(n1)CCCC2Nc1cc(C(F)(F)F)ccc1CO (stereo not shown) [Compound 2] | 0.022 µM | – | – | –
47 | B1 | – | – | – | Kd (C5a receptor [2]; read-out: C5a Kd, Kd of C5a used for the Ki calculation): 0.000324 µM
